Tests used:
MAO-A [1] = molecular target: T1, MAO-A (Rattus norvegicus, UniProt P21396); assay: Inhibition of MAO-A in rat cortex mitochondrial-rich fractions; conditions: read-out: Percent Inhibition MAO-A
T1 sequence (P21396 1-526): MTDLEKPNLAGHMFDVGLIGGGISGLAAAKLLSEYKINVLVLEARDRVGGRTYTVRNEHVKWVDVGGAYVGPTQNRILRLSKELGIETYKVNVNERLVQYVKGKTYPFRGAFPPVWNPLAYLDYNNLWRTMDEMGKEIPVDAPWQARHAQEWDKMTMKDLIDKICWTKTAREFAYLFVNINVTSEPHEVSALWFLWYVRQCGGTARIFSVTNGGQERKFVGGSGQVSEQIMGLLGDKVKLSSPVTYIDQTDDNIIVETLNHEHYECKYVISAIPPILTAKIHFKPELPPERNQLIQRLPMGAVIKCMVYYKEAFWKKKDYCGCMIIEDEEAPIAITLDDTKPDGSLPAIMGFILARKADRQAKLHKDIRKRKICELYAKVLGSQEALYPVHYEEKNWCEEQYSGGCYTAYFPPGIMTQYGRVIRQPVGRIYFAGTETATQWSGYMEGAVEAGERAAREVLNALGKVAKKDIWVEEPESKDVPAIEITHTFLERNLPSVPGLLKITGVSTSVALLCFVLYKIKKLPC

MAO-A [2] = molecular target: T2, MAO-A (Cavia porcellus, UniProt H0UVA2); assay: MAO-A inhibition in guinea pig hippocampal homogenates in vitro; type: biochemical; set-up: specific substrates of MAO-A (^14C-serotonin) in guinea pig hippocampal homogenates; from tissue; host or cells: guinea pig hippocampal homogenates
T2 sequence (H0UVA2 1-461): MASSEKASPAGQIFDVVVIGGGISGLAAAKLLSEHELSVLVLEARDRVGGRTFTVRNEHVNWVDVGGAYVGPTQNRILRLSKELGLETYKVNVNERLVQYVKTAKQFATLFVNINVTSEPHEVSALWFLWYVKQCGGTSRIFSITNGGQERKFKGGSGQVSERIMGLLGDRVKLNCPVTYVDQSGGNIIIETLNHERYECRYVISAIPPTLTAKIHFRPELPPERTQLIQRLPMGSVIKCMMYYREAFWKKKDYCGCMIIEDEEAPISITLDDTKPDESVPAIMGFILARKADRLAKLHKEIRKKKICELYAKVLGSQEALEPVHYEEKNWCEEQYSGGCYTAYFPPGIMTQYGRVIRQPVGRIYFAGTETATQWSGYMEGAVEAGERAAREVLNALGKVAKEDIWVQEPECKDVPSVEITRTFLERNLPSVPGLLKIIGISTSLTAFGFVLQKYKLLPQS
Excerpt: Human platelet MAO is comprised exclusively of the type-B isoform of the enzyme. […] The present study also examined the two enantiomers of DMS for inhibitory activity with respect to the MAO-A and MAO-B in guinea pig hippocampal tissue. Guinea pig brain tissue is an excellent animal model for studying brain dopamine metabolism, the enzyme kinetics of the multiple forms of MAO and the inhibitory properties of novel agents that interact with these enzymes. The multiple forms of MAO in this animal species show similar kinetic properties to those found in human brain tissue. Finally, the test agents were administered to guinea pigs and the extent to which they might act as inhibitors of brain MAO in vivo was assessed.
In vitro: The test system utilized the in vitro conversion of specific substrates of MAO-A (^14C-serotonin) in guinea pig hippocampal homogenates or MAO-B (^14C-phenylethylamine) by human platelets and guinea pig hippocampal homogenates. […] A percent inhibition was calculated from these values.

MAO-A [3] = molecular target: T2, MAO-A; assay: In vivo MAO-A inhibition in guinea pig cortex (hippocampus) after 5 s.c. treatments; conditions: sc, read-out: inhibition of MAO-A activity
Experimental: Hippocampal homogenates containing enzyme were prepared, and assays in vitro for MAO-A and MAO-B activity.

[4] = test system: cultured rat mesencephalic cells; assay: TH immunochemistry after 100 μM NMDA exposure; conditions: 50 μM; single sample; listed as Deprenyl
Experimental: Rat mesencephalic cell cultures were exposed to 100 μM NMDA and incubated as described above in connection with FIG. 16.

[5] = test system: rat embryonic mesencephalic cells; assay: TH positive cell survival, medium change (glutamate receptor dependent) model of cell death
Experimental: (§1) In these experiments, cells were plated and allowed to stabilize for several days.

[6] = test system: rat embryonic mesencephalic cells; assay: [3H]dopamine uptake, medium change (glutamate receptor dependent) model of cell death; conditions: 50 μM
Experimental: Preparations are then added to 10 ml Ecoscint (National Diagnostics) and counted in a scintillation spectrometer.
as §1

C#CCN(C)[C@H](C)Cc1ccccc1 [Selegiline, (R)-N-α-dimethyl-N-2-propynylbenzeethanamine, reference compound] was tested, and the inhibition at 0.03 µM (MAO-A [1]) was 0%, the “MAO-A % Reduction 0 ± SEM” value (MAO-A [2]; Concentration 300 nM) was 11.95 ± 2.4% and the “MAO-A % Reduction 0 ± SEM” value (MAO-A [2]; Concentration 1 μM) was 22.1 ± 1.2%. For the same compound, the “MAO-A % Reduction 0 ± SEM” value (MAO-A [2]; Concentration 3 μM) was 53.5 ± 2.7%, the “reduction in potency compared to selegiline, MAO-A” value (MAO-A [2]; figure in parentheses, times less potent) was 1 and the inhibition at 1 mg/kg (MAO-A [3]) was 36.1%. The “TH positive cells, cells/cm^2” value [4] was 230 cells/cm^2, the “TH positive cells, cells/cm^2” value ([5]; 50 μM, Mean, listed as Deprenyl) was 344.2 cells/cm^2 and the “survival of dopaminergic neurons (TH staining and tritiated dopamine uptake, FIGS. 11 and 12)” value ([5]; 0.5, 5.0 or 50 μM, 4 days of daily medium changes) was “promotes the survival of dopaminergic neurons”. For the same compound, the “neuron protection by measurement of dopamine uptake (FIG. 15)” value [6] was “neuron protection”.
